pIC50: −log10 of the molar value. Converted amounts (≈) assume the structure as drawn. Where two headings read alike, the source gives them in different places.
Legend:
[1] = molecular target: Rat FAAH (Rattus norvegicus (Rat), UniProt P97612); experiment: In vitro rat FAAH radiometric assay; assay type: biochemical; details: rat brain homogenate, 10 min pre-incubation at 37° C.; read-out: r-FAAH IC50
Method: In Vitro Rat FAAH Radiometric Assay
Rat FAAH was prepared from male Sprague Dawley rat brains, homogenized in a potter in 20 mM of Tris HCl pH 7.4, 0.32 M sucrose.
The radiometric assay used to measure FAAH activity was performed in Eppendorf tubes: 50 μg of total rat brain homogenate were pre-incubated in 445.5 μL of assay buffer (50 mM Tris-HCl pH 7.4, 0.05% Fatty acid-free-bovine serum albumin (BSA)) with 4.5 μL of inhibitor (at appropriate concentration in DMSO) or DMSO alone (to measure FAAH total activity) for 10 min at 37° C. The blank (no activity control) was prepared using 445.5 μL of assay buffer and 4.5 μL of DMSO without the 50 μg of total rat brain homogenate.
After 10 min of pre-incubation with test compounds, the reaction was started by adding of 50 μL of substrate and incubating for 30 min at 37° C. The substrate was prepared in assay buffer in order to achieve the final concentration of 1 μM arachidonoyl ethanolamide (Cayman Chemical N. 90050) and 0.6 nM anandamide [ethanolamine-1-^3H] (American Radiolabeled Chemicals Inc, ART. 0626, Conc. 1 mCi/mL, S.A. 60 Ci/mmol). The reaction was stopped by adding cold 1:1 CHCl3/MeOH. After 10 min of centrifugation (845×g at 4° C.) 600 μL of aqueous phase were transferred into scintillation vials previously filled with 3 mL of scintillation fluid (Ultima Gold™, Perkin Elmer Inc., Cat. 6013329). Radioactivity was measured by liquid scintillation counting (MicroBeta2 LumiJET Perkin Elmer Inc.).
(§1) Concentrations causing half-maximal inhibition of FAAH, IC50 values, were determined by non-linear regression analysis of the Log [concentration]/response curves generated with mean replicate values using a four parameter Hill equation curve fitting with GraphPad Prism 5 (GraphPad Software Inc., CA—USA).

[2] = Pharmacokinetic experiment in cannulated Sprague-Dawley rats (PO and IV); assay type: in vivo; details: plasma, rat; for bioavailability: PO 10 mg/kg vs IV 3 mg/kg, read-out: Oral bioavailability (F %)
Method: Pharmacokinetic Experiment and Analysis
Compounds were administered orally (PO) and intravenously (IV) to cannulated Sprague-Dawley rats at 10 and 3 mg/kg, respectively. Vehicle was: PEG400/Tween 80/Saline solution at 10/10/80 (% in volume), respectively. Three animals per dose were treated. Blood samples at 0, 15, 30, 60, 120, 240, 480 and 1440 min after administration were collected for PO arm. Blood samples at 0, 5, 15, 30, 60, 120 and 240 min after administration were collected for IV arm. Plasma was separated from blood by centrifugation for 15 min at 3500 rpm a 4° C., collected in a Eppendorf tube and frozen (−80° C.). Control animals treated with vehicle only were also included in the experimental protocol.
Preparation of Samples, Standard Curve and QC Samples for UPLC-MS Analysis
Samples were thawed in an ice bath and after a short centrifugation transferred (50 μL) into a 96-deepwell plate and added with 150 μL of acetonitrile spiked with 200 nM Warfarin (the Internal Standard, I.S.). After agitation (3 min) the plate was centrifuged at 3000 g for 10 min at 4° C. 80 μL of supernatant was then transferred in a 96-well plate and added with 80 μL of water. Standard compound was spiked in neat solvent (PBS pH 7.4 added with 10% acetonitrile) to prepare a calibration curve over the 1 nM-10 μM range. Three quality controls (QCs) samples were also prepared spiking the compound in blank rat plasma to final 20, 200 and 2000 nM concentrations. Calibrators and QCs were crashed with acetonitrile spiked with the I.S. as described for the plasma samples. Dosing solutions, previously diluted 2000 fold in the neat solvent were also included in the samples and tested.
Compounds plasma levels were monitored on a Xevo TQ UPLC-MS/MS system (Waters, Milford USA), using the calibration curve and the internal standard (Warfarin). Chromatography was carried out on a Acquity BEH C18 column (2.1×50 mmID, 1.7 m particle size, Waters, Milford USA). Flow rate was 0.5 mL/min. The mobile phase was (A) H2O/0.1% formic acid; (B) MeCN/0.1% formic acid. A linear gradient was applied from 5 to 100% B in 2 min. 3 μL of each sample were loaded on column. MS parameters and multiple reaction monitoring (MRM) transitions were carefully tuned for each compound. Plasma levels data were analyzed using PKSolutions excel application (Summit Research Service, USA) to derive the most important pharmacokinetic parameters.
The oral bioavailability (F %) data, and the Area Under the Curve (AUC) data (ng×min/mL) corresponding to the IV (3 mg/kg) and PO (10 mg/kg) dose of selected compounds described in the Examples are reported in Table 3. Their F % data are in the range from 35 to 87.

[3] = Aqueous kinetic solubility assay; assay type: physicochemical; details: phosphate buffered saline, aqueous buffer, kinetic from dmso stock, PBS pH 7.4, target 250 μM, 2.5% DMSO, 25° C.
Method: Aqueous Kinetic Solubility Assay
The aqueous kinetic solubility was determined from a 10 mM DMSO stock solution of test compound in Phosphate Buffered Saline (PBS) at pH 7.4.
The study was performed by incubation of an aliquot of 10 mM DMSO stock solution in PBS (pH 7.4) at a target concentration of 250 μM resulting in a final concentration of 2.5% DMSO. The incubation was carried out under shaking at 25° C. for 24 h followed by centrifugation. The supernatant was analyzed by UPLC/MS for the quantification of dissolved compound by UV at a specific wavelength (215 nm).
The aqueous kinetic solubility (in μM) was calculated by dividing the peak area of the supernatant by the peak area of the test compound reference and further multiplied by the concentration of the test compound reference and dilution factor.
The UPLC/MS analyses were performed on a Waters ACQUITY UPLC/MS system consisting of a SQD (Single Quadrupole Detector) Mass Spectrometer equipped with an Electrospray Ionization interface and a Photodiode Array Detector. The PDA range was 210-400 nm. The analyses were run on an ACQUITY UPLC BEH C18 column (50×2.1 mmID, particle size 1.7 m) with a VanGuard BEH C18 pre-column (5×2.1 mmID, particle size 1.7 μm). The mobile phase was 10 mM NH4OAc in H2O at pH 5 adjusted with AcOH (A) and 10 mM NH4OAc in MeCN—H2O (95:5) at pH 5 (B). Electrospray ionization in positive and negative mode was applied in the mass scan range 100-500 Da.

[4] = molecular target: human FAAH-1 (Homo sapiens (Human), UniProt O00519); experiment: In vitro human FAAH fluorescent assay; assay type: biochemical; details: human FAAH-1 membrane preparation from HEK-293, 50 min pre-incubation at 37° C.; read-out: h-FAAH IC50
Sequence of human FAAH-1 (O00519 whole entry): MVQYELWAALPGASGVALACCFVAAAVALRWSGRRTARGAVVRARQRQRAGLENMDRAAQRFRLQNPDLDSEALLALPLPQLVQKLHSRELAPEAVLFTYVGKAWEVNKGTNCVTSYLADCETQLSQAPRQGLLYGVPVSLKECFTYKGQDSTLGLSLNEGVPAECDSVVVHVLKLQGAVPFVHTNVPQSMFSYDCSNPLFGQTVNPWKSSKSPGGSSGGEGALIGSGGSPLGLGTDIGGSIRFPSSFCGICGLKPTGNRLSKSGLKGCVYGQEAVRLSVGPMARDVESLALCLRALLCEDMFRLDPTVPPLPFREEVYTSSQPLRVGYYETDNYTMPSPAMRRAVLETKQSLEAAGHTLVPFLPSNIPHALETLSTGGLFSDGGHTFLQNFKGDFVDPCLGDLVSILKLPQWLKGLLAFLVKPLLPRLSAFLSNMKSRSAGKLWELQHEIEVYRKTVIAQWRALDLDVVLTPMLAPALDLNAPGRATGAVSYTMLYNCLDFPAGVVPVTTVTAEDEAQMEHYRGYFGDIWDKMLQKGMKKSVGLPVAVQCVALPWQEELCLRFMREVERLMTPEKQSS
Method: In Vitro Human FAAH Fluorescent Assay
Human recombinant FAAH was obtained from a HEK-293 cell line stably overexpressing human FAAH-1 enzyme. Cells were grown in Dulbecco's Modified Eagle Medium (DMEM) medium containing 10% FBS, 1% pen/strep, 1% glutamine and 500 μg/mL G418. To obtain membrane preparation cells were scraped off with cold PBS and collected by centrifugation (500×g, 10 min, 4° C.); the cell pellet was re-suspended in 20 mM Tris-HCl pH 7.4, 0.32M sucrose, disrupted by sonication (10 pulses, 5 times) and centrifuged (800×g, 15 min, 4° C.); the collected supernatant was centrifuged at 105,000×g for 1 h at 4° C. and the pellet was re-suspended in PBS.
The fluorescent assay to measure FAAH activity was performed in 96 wells black plates: 2.5 μg of human FAAH-1 membrane preparation were pre-incubated for 50 min at 37° C., in 180 µL of assay buffer (50 mM TrisHCl pH 7.4, 0.05% Fatty acid-free-BSA) with 10 μL of inhibitor (at appropriate concentration in DMSO) or 10 μL DMSO to measure FAAH total activity. The background (no activity) samples were prepared using 180 μL of assay buffer without human FAAH-1 and 10 μL of DMSO. The reaction was then started by the addition of 10 μL of a 40 μM substrate solution (N. 10005098, Cayman Chemical) dissolved in ethanol, and used at a final concentration of 2 μM. The reaction was carried out for 30 min at 37° C. and fluorescence was measured with a Tecan Infinite M200 nanoquant plate reader (excitation wavelength 350 nm/emission wavelength 460 nm).
as §1

[5] = IV, 3 mg/kg, read-out: AUC IV (3 mg/kg) (converted)
[6] = PO, 10 mg/kg, read-out: AUC PO (10 mg/kg) (converted)

Sequence of Rat FAAH (P97612 whole entry): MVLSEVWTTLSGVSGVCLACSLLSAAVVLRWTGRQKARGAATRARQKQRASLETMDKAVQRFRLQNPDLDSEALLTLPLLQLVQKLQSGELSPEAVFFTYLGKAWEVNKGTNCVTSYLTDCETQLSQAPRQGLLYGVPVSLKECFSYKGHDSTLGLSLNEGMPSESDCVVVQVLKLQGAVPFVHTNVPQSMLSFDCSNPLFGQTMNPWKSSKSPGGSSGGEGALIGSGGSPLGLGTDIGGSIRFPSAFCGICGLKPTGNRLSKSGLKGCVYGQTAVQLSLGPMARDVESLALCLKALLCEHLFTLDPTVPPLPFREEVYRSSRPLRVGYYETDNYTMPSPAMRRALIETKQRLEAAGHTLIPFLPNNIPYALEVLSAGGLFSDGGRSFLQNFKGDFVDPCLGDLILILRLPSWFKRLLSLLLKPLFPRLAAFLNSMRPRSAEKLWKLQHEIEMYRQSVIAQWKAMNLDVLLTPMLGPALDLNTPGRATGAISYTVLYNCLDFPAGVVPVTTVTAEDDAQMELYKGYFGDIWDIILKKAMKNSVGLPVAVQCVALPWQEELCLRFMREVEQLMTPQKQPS

## CNC(=O)c1cccc(-c2cc(OC(=O)NC3CCCCC3)ccc2OC(F)F)c1 [Example 9, [4-(difluoromethoxy)-3-[3-(methylcarbamoyl)phenyl]phenyl] N-cyclohexyl carbamate]
[1]
  pIC50: 8.46
[2]
  bioavailability: 53%
[2]; [5]
  AUC: 1390 ng·h/mL
[2]; [6]
  AUC: 2480 ng·h/mL
[3]
  solubility kinetic at 24 h: 8 µM (≈ 3.35 µg/mL)
[4]
  pIC50: 7.92

## CNC(=O)c1cccc(-c2cc(OC(=O)NC3CCCCC3)ccc2F)c1 [Example 1, [4-fluoro-3-[3-(methylcarbamoyl)phenyl]phenyl]N-cyclohexylcarbamate]
[1]
  pIC50: 8.85
[2]
  bioavailability: 87%
[2]; [5]
  AUC: 1280 ng·h/mL
[2]; [6]
  AUC: 3700 ng·h/mL
[3]
  solubility kinetic at 24 h: 28 µM (≈ 10.4 µg/mL)
[4]
  pIC50: 7.92

## CS(=O)(=O)c1cccc(-c2cc(OC(=O)NC3CCCCC3)ccc2F)c1 [Example 7, [4-Fluoro-3-(3-methylsulfonylphenyl)phenyl] N-cyclohexylcarbamate]
[1]
  pIC50: 8.05
[4]
  pIC50: 8.31

## NC(=O)c1cccc(-c2cc(F)cc(OC(=O)NC3CCCCC3)c2)c1 [Example 12, [3-(3-Carbamoylphenyl)-5-fluoro-phenyl] N-cyclohexylcarbamate]
[1]
  pIC50: 9.64
[4]
  pIC50: 9.06

## CNC(=O)c1cccc(-c2cc(OC(=O)NC3CCCC3)ccc2F)c1 [Example 4, [4-fluoro-3-[3-(methylcarbamoyl)phenyl]phenyl] N-cyclopentylcarbamate]
[1]
  pIC50: 8.41
[3]
  solubility kinetic at 24 h: 96 µM (≈ 34.2 µg/mL)
[4]
  pIC50: 8.54

## NS(=O)(=O)c1cccc(-c2cc(OC(=O)NC3CCCCC3)ccc2OC(F)F)c1 [Example 10, [4-(difluoromethoxy)-3-(3-sulfamoylphenyl)phenyl] N-cyclohexylcarbamate]
[1]
  pIC50: 8.09
[4]
  pIC50: 8.04

## NC(=O)c1cccc(-c2cc(OC(=O)NC3CCCCC3)ccc2OC(F)F)c1 [Example 8, [3-(3-carbamoylphenyl)-4-(difluoromethoxy)phenyl] N-cyclohexylcarbamate]
[1]
  pIC50: 8.85
[2]
  bioavailability: 35%
[2]; [5]
  AUC: 2110 ng·h/mL
[2]; [6]
  AUC: 2430 ng·h/mL
[3]
  solubility kinetic at 24 h: 44 µM (≈ 17.8 µg/mL)
[4]
  pIC50: 8.09

## NC(=O)c1cccc(-c2cccc(OC(=O)NC3CCCCC3)c2)c1 [[drawing 135] comparison compound, reference compound]
[2]
  bioavailability: 5%
[2]; [5]
  AUC: 2560 ng·h/mL
[2]; [6]
  AUC: 446 ng·h/mL
[3]
  solubility kinetic at 24 h: 1 µM (≈ 0.338 µg/mL)

## NS(=O)(=O)c1cccc(-c2cccc(OC(=O)NC3CCCCC3)c2)c1 [[drawing 129] comparison compound, reference compound]
[2]
  bioavailability: 21%
[2]; [5]
  AUC: 725 ng·h/mL
[2]; [6]
  AUC: 502 ng·h/mL
[3]
  solubility kinetic at 24 h: 7 µM (≈ 2.62 µg/mL)

## CNC(=O)c1cccc(-c2cc(OC(=O)NC3CCC3)ccc2F)c1 [Example 6, [4-fluoro-3-[3-(methylcarbamoyl)phenyl]phenyl] N-cyclobutylcarbamate]
[1]
  pIC50: 8.29
[3]
  solubility kinetic at 24 h: 183 µM (≈ 62.7 µg/mL)
[4]
  pIC50: 8.18

## NC(=O)c1cccc(-c2cccc(OC(=O)NC3CCCCC3)c2F)c1 [Example 13, [3-(3-Carbamoylphenyl)-2-Fluoro-Phenyl] N-Cyclohexylcarbamate]
[1]
  pIC50: 8.72
[4]
  pIC50: 9.05

## CNC(=O)c1cccc(-c2cccc(OC(=O)NC3CCCCC3)c2)c1 [[drawing 127] comparison compound, reference compound]
[2]
  bioavailability: 30%
[2]; [5]
  AUC: 1520 ng·h/mL
[2]; [6]
  AUC: 1500 ng·h/mL
[3]
  solubility kinetic at 24 h: 18 µM (≈ 6.34 µg/mL)

## NC(=O)c1cccc(-c2cc(OC(=O)NC3CCCC3)ccc2F)c1 [Example 5, [3-(3-carbamoylphenyl)-4-fluoro-phenyl] N-cyclopentylcarbamate]
[1]
  pIC50: 8.54
[4]
  pIC50: 9.08

## CS(=O)(=O)c1cccc(-c2cc(OC(=O)NC3CCCCC3)ccc2OC(F)F)c1 [Example 11, [4-(difluoromethoxy)-3-(3-methylsulfonylphenyl)phenyl] N-cyclohexylcarbamate]
[1]
  pIC50: 8.54
[3]
  solubility kinetic at 24 h: 12 µM (≈ 5.27 µg/mL)
[4]
  pIC50: 8.19

## NC(=O)c1cccc(-c2cccc(OC(=O)NC3CCC3)c2)c1 [[drawing 131] comparison compound, reference compound]
[2]
  bioavailability: 39%
[2]; [5]
  AUC: 891 ng·h/mL
[2]; [6]
  AUC: 1160 ng·h/mL
[3]
  solubility kinetic at 24 h: 6 µM (≈ 1.86 µg/mL)

From US9822068B2, “Inhibitors of fatty acid amide hydrolase (FAAH) enzyme with improved oral bioavailability and their use as medicaments” (THE REGENTS OF THE UNIVERSITY OF CALIFORNIA, priority 2014, dated 2017)
